Data published in patent publication US7928060B2, “Amylin family polypeptide-6 (AFP-6) analogs and methods of making and using them” (Amylin Pharmaceuticals, Inc., priority 2004, dated 2011).
pEC50: −log10 of the molar value. Where two headings read alike, the source gives them in different places.

Legend:
CGRP receptors = biological target: T1, CGRP receptors (Homo sapiens, UniProt O60894+Q16602); experiment: CGRP radioligand binding assay (125I-hCGRP, SK-N-MC cell membranes); conditions: FIG. 11
T1 construct: membranes prepared from SK-N-MC cells, known to express CGRP receptors; endogenous in cells; host or cells: SK-N-MC cell membranes

calcitonin receptor = experiment: cAMP production in CHO cells (AlphaScreen); format: cell-based; conditions: for pEC50: CHO, 30,000 cells/well
Sprague-Dawley rats = experiment: 1-week continuous subcutaneous infusion in high fat-fed rats: food intake and body weight; format: in vivo, rat; conditions: 75 nmol/kg/day
Source text: Individually housed male Sprague-Dawley® rats (beginning weight=310 g; 12-h light/dark cycle) were maintained on a high fat (HF) diet (Research Diet 58% kcal from fat). Rats were fattened for 34 days. At the end of the fattening period, 7-day osmotic pumps (Durect Corp.) were implanted interscapularly under anesthesia (body weight at time of implant=403 g). The rats received pumps delivering compound or vehicle (50% DMSO). The following compounds were examined at a 75 nmol/kg/day dose: AFP-6, and an AFP-6 analog SEQ ID NO:32. Food intake and body weight measurements were obtained on day 2 and day 7. Group differences were analyzed using analysis of variance (ANOVA) and Fisher's Least-Significant Difference test.

adrenomedullin receptor = conditions: bovine studies; cited from earlier work

T1 sequence (Q16602 23-461): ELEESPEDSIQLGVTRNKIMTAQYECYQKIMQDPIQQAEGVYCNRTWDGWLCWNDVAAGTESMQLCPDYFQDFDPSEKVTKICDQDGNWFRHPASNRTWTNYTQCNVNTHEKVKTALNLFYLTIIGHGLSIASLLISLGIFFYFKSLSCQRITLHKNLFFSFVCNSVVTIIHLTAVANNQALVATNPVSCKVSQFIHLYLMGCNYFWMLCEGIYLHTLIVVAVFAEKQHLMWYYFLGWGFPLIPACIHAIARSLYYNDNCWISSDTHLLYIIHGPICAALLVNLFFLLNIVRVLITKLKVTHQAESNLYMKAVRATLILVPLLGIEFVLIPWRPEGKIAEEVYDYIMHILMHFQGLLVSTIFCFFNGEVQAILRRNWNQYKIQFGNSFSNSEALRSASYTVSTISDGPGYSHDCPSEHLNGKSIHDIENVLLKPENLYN
T1 sequence (O60894 27-148): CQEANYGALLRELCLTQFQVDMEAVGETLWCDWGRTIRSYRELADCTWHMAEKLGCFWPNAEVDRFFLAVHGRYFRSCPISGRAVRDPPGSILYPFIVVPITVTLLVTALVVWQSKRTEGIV

**Q.** For `CSCC[C@H](NC(=O)[C@H](CC(C)C)NC(=O)[C@H](CCC(N)=O)NC(=O)[C@H](Cc1c[nH]c2ccccc12)NC(=O)[C@H](CC(C)C)NC(=O)[C@H](CCCNC(=N)N)NC(=O)[C@H](Cc1c[nH]cn1)NC(=O)[C@H](CO)NC(=O)[C@H](CC(C)C)NC(=O)[C@H](CC(N)=O)NC(=O)[C@H](CCC(N)=O)NC(=O)[C@@H](NC(=O)[C@H](CCC(N)=O)NC(=O)[C@@H]1CSSC[C@H](NC(=O)CNC(=O)[C@@H](NC(=O)[C@H](CCCNC(=N)N)NC(=O)[C@H](CC(C)C)NC(=O)[C@H](CC(C)C)NC(=O)[C@H](CCC(N)=O)NC(=O)[C@H](C)NC(=O)[C@H](CCC(N)=O)NC(=O)[C@@H](N)[C@@H](C)O)C(C)C)C(=O)N[C@@H](C(C)C)C(=O)N[C@@H](CC(C)C)C(=O)NCC(=O)N[C@@H]([C@@H](C)O)C(=O)N1)C(C)C)C(=O)NCC(=O)N1CCC[C@H]1C(=O)N[C@@H](C)C(=O)NCC(=O)N[C@@H](CCCNC(=N)N)C(=O)N[C@@H](CCC(N)=O)C(=O)N[C@@H](CC(=O)O)C(=O)N[C@@H](CO)C(=O)N[C@@H](C)C(=O)N1CCC[C@H]1C(=O)N[C@H](C(=O)N[C@@H](CC(=O)O)C(=O)N1CCC[C@H]1C(=O)N[C@@H](CO)C(=O)N[C@@H](CO)C(=O)N1CCC[C@H]1C(=O)N[C@@H](Cc1c[nH]cn1)C(=O)N[C@@H](CO)C(=O)N[C@@H](Cc1ccc(O)cc1)C(N)=O)C(C)C` [SEQ ID NO: 1], which “rank order, displacement of CGRP” value (CGRP receptors) is on record?
**A.** CGRP >adrenomedullin >AFP-6 >amylin>>calcitonin

**Q.** What about the pEC50 (calcitonin receptor; average of three experiments, read-out: Average EC50) of the same compound?
**A.** 8.02

**Q.** And the pEC50 (calcitonin receptor; read-out: Experiment 1 EC50)?
**A.** 7.95

**Q.** And the pEC50 (calcitonin receptor; read-out: Experiment 2 EC50)?
**A.** 7.97

**Q.** And the pEC50 (calcitonin receptor; read-out: Experiment 3 EC50)?
**A.** 8.15

**Q.** What about the “rank order of potency in CHO cells” value (calcitonin receptor; cAMP, FIG. 9) of the same compound?
**A.** AFP-6>adrenomedullin=CGRP alpha

**Q.** And the “rank order of potency, CHO cell experiments” value (calcitonin receptor; cAMP, panel of related peptides)?
**A.** calcitonin >AFP-6>amylin >hCGRP alpha>adrenomedullin

**Q.** And the “body weight gain compared to Vehicle” value (Sprague-Dawley rats; Day 7)?
**A.** significantly less body weight gain than Vehicle

**Q.** What about the “percent body weight loss (vehicle-corrected)” value (Sprague-Dawley rats; Day 7) of the same compound?
**A.** 3.2%

**Q.** What about the “food intake compared to Vehicle” value (Sprague-Dawley rats; after 2 days of treatment) of the same compound?
**A.** significantly reduced food intake

**Q.** And the “binding at the adrenomedullin receptor” value (adrenomedullin receptor)?
**A.** 1 to 5 nM
